Assay results published in publication PMC9415646, “Improving Aqueous Solubility and In Vitro Pharmacokinetic Properties of the 3-Nitroimidazo[1,2-a]pyridine Antileishmanial Pharmacophore” (Pharmaceuticals, 2022).
Several values for one entry are separate records, joined by “and”; a condition that tells them apart may be missing. Identical values can stand only once. Like-named read-outs stand apart in the source and are kept apart here.

Key:
[1] = Parallel artificial membrane permeability assay (PAMPA); assay type: in vitro ADME; settings: for Papp at 4 h, 100 µM: PAMPA, pH 7.4, read-out: PAMPA GIT at pH 7.4 Pe
HepG2 cell line = system: HepG2 cell line; set-up: method as in PMID 24080103, PMID 30655943; settings: previously identified hit compounds; cited from earlier work
THP1 cell line = system: THP1 cell line; set-up: method as in PMID 24080103, PMID 30655943; settings: previously identified hit compounds; cited from earlier work
[2] = system: L. infantum axenic amastigotes; set-up: method as in PMID 24080103, PMID 30655943; settings: previously identified hit compounds; cited from earlier work
[3] = biological target: T1, Albumin from human plasma (Homo sapiens, UniProt P02768); assay: Plasma protein (albumin) binding; assay type: in vitro ADME
T1 construct: from tissue; host or cells: plasma
Experimental: Plasma doped with the tested compound was incubated at 37 °C in triplicate in one of the compartments of the insert, the other compartment containing a phosphate buffer solution at pH 7.2. After stirring for 4 h at 300 rpm, a 25 μL aliquot of each compartment was taken and diluted; the dilution solution was adapted so as to obtain an identical matrix for all the compartments after dilution. Parallel, reprocessing of a plasma doped but not incubated was used to assess recovery. The LC-MS used for this study was a Waters® Acquity I-Class/Xevo TQD, equipped with a Waters® Acquity BEH C18 column, 50 × 2.1 mm, […]. The mobile phases were (A) ammonium acetate 10 mM and (B) acetonitrile with 0.1% formic acid. The injection volume was 1 µL and the flow rate 600 µL/min. Chromatographic analysis, total duration of 4 min, was performed along the following gradient: 0 < t < 0.2 min, 2% (B); 0.2 < t < 2 min, linear increase to 98% (B); 2 < t < 2.5 min, 98% (B); 2.5 < t < 2.6 min, linear decrease to 2% (B); 2.6 < t < 4 min, 2% (B). Carbamazepine, oxazepam, warfarin and diclofenac were used as reference drugs and propranolol as internal standard. The unbound fraction (fu) was calculated according to the following formula: fu=APlasma, 4h−APBS,4h/APlasma, 4h×100 . The percentage of recovery was calculated according to the following formula: % Recovery=(VPBS×APBS,4h)+(VPlasma×APlasma,4h)/(VPlasma×APlasma,0h) where A is the ratio of the area under peak of the studied molecule and the area under peak of the internal standard (propranolol 200 nM). V is the volume of solution present in the compartments (VPBS = 350 µL and Vplasma = 200 µL).

[4] = system: T. b. brucei BSF trypomastigotes; set-up: method as in PMID 30655943; settings: previously evaluated hit compounds; cited from earlier work
[5] = system: T. b. brucei BSF trypomastigotes; assay: Antitrypanosomal evaluation on T. b. brucei BSF trypomastigotes (Alamar Blue); assay type: cell-based; settings: Trypanosoma brucei, trypomastigote blood stream form
Experimental: The effects of the tested compounds on the growth of T. b. brucei were assessed by Alamar Blue® assay described by Räz et al. T. b. brucei AnTat 1.9 (IMTA, Antwerpen, Belgium) was cultured in MEM with Earle’s salts, supplemented according to the protocol of Baltz et al. with the following modifications: 0.5 mM mercaptoethanol (Sigma Aldrich®, France), 1.5 mM L-cysteine (Sigma Aldrich®), 0.05 mM bathocuproïne sulfate (Sigma Aldrich®) and 20% heat-inactivated horse serum (Gibco®, France), at 37 °C and 5% CO2. They were incubated at an average density of 2000 parasites/100 µL in sterile 96-wells plates (Fisher®, France) with various concentrations of compounds dissolved in DMSO, in duplicate. Appropriate controls suramin, treated with sterile water, and fexinidazole, treated with DMSO on sterile water (reference drugs purchased from Sigma Aldrich, France and Fluorochem, UK) were added to each set of experiments. After a 69 h incubation period at 37 °C, 10 µL of the viability marker Alamar Blue® (Fisher, France) were then added to each well, and the plates were incubated for 5 h. The plates were read in a ENSPIRE microplate reader (PerkinElmer, Waltham, MA, USA) using an excitation wavelength of 530 nm and an emission wavelength of 590 nm. […] EC50 were calculated by nonlinear regression analysis processed on dose-response curves, using GraphPad Prism software (USA). EC50 values were calculated from three separate experiments.

T1 sequence (P02768 25-609): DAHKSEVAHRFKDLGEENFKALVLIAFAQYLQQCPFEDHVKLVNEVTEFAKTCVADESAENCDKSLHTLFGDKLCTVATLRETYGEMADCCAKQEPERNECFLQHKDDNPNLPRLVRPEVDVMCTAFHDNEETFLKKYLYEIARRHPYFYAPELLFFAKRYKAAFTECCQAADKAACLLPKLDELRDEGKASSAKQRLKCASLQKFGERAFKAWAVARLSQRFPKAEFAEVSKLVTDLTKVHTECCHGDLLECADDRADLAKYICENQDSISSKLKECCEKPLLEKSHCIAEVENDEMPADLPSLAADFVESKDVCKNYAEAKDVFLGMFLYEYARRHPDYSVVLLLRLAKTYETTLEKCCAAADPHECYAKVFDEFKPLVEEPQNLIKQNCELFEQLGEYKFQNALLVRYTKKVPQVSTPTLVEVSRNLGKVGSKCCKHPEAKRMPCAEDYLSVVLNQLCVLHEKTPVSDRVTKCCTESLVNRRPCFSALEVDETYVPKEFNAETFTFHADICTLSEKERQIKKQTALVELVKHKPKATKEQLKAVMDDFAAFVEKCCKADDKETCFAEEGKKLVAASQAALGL

For `O=[N+]([O-])c1c(CS(=O)(=O)c2ccccc2)nc2c(Sc3ccc(Cl)cc3)cc(Cl)cn12` [Hit B, reference compound], the “PAMPA GIT at pH 7.4 Pe” value [1] is given as 4.0 nm/s, the Papp at 4 h, 100 µM [1] is given as 0.4 ± 0.06 ×10⁻⁶ cm/s and the CC50 (HepG2 cell line) is given as over 100000 nM. For the same compound, the CC50 (THP1 cell line) was over 62500 nM, the EC50 [2] was 1700 ± 300 nM and the “Albumin Binding” value [3] was 99.95%. The EC50 [4] was 950 ± 50 nM.
Compound `O=[N+]([O-])c1c(CS(=O)(=O)c2ccc(C(F)(F)F)cc2)nc2c(Sc3ccc(Cl)cc3)cc(Cl)cn12` [Compound 3d, 6-Chloro-8-[(4-Chlorophenyl)thio]-3-Nitro-2-[(4-Trifluoromethylphenylsulfonyl)methyl]imidazo[1,2-a]pyridine] has an EC50 [5] of 890 ± 70 nM.
Compound `O=[N+]([O-])c1c(CS(=O)(=O)c2ccc(O)cc2)nc2c(Sc3ccc(Cl)cc3)cc(Cl)cn12` [Compound 3a, 4-{[(6-Chloro-8-[(4-Chlorophenyl)thio]-3-Nitroimidazo[1,2-a]pyridin-2-yl)methyl]sulfonyl}phenol] has an EC50 [5] of 780 ± 50 nM.
In the case of `O=[N+]([O-])c1c(CS(=O)(=O)c2ccccc2)nc2c(Br)cc(Cl)cn12` [Hit A, 8-Bromo-6-chloro-3-nitro-2-(phenylsulfonylmethyl)imidazo[1,2-a]pyridine, reference compound], the “PAMPA GIT at pH 7.4 Pe” value [1] is given as 173.2 nm/s, the Papp at 4 h, 100 µM [1] is given as 17.3 ± 3.88 ×10⁻⁶ cm/s and the CC50 (HepG2 cell line) is given as over 15600 nM. The CC50 (THP1 cell line) was over 100000 nM, the EC50 [2] was 16400 ± 1300 nM and the “Albumin Binding” value [3] was 96.50%. For the same compound, the EC50 [4] was 1400 ± 400 nM.
With `CSc1ccc(OCc2ncc([N+](=O)[O-])n2C)cc1` [Fexinidazole, reference compound] the EC50 [5] was 1400 ± 500 nM.
In the case of `O=[N+]([O-])c1c(CS(=O)(=O)CCC(F)(F)F)nc2c(-c3ccncc3)cc(Cl)cn12` [Compound 7, 6-Chloro-3-Nitro-8-(Pyridin-4-yl)-2-[(3,3,3-Trifluoropropylsulfonyl)methyl]imidazo[1,2-a]pyridine], the Papp at 4 h, 100 µM [1] is reported as 31.4 ± 8.72 ×10⁻⁶ cm/s and the “Albumin Binding” value [3] is reported as 88.6% and 88.65%.
With `O=[N+]([O-])c1c(CS(=O)(=O)c2ccc(F)cc2)nc2c(Sc3ccc(Cl)cc3)cc(Cl)cn12` [Compound 3c, 6-Chloro-8-[(4-Chlorophenyl)thio]-2-[(4-Fluorophenylsulfonyl)methyl]-3-Nitroimidazo[1,2-a]pyridine] the EC50 [5] was 570 ± 20 nM.
In the case of `O=[N+]([O-])c1c(CS(=O)(=O)CCC(F)(F)F)nc2c(Sc3ccc(Cl)cc3)cc(Cl)cn12` [Compound 3i, 6-Chloro-8-[(4-Chlorophenyl)thio]-3-Nitro-2-[(3,3,3-Trifluoropropylsulfonyl)methyl]imidazo[1,2-a]pyridine], the “PAMPA GIT at pH 7.4 Pe” value [1] is reported as 6.3 nm/s, the Papp at 4 h, 100 µM [1] is reported as 0.63 ± 0.08 ×10⁻⁶ cm/s and the “Albumin Binding” value [3] is reported as 99.8% and 99.76%.
